Reference: patent US8207217B2 (Apotex Technologies Inc, priority 2007, dated 2012)

What was measured:
[1] = oral drug in traditional tablet or capsule form; cited from earlier work
[2] = Speciation plot / pH of aqueous solution (Hyperquad Simulation & Speciation, experimentally determined pKas); type: physicochemical
Text: We have determined that an advantageous salt for use in pharmaceutical preparations is the mono-sodium salt of the D-isoglutamyl-D-tryptophan, which can be formally represented by formula III, which is the predominant pharmaceutical salt at neutral pH. This takes advantage of the fact that the amino acid is a zwitterion. We have determined that the mono-sodium salt as shown in formula III is the most preferred salt in pharmaceutical preparations. The di-sodium salt of formula II is the predominant species at a pH of about 12 or above. A solution of di-sodium salt in water will have a pH of about 12 and therefore it is unsuitable for use in a liquid formulation. Adjustment of a solution of the di-sodium salt back to a pH of about 7 to about 7.4, in fact produces the mono-sodium salt as the predominant species in solution.
FIG. 1 is a speciation plot of the dipeptide H-D-iGlu-D-Trp-OH and its salt calculated with the software Hyperquad Simulation & Speciation using experimentally determined pKas of the acid and amine groups. LH2=H-D-iGlu-D-Trp-OH in diacid form represented by a compound of formula I, LH=mono carboxylic acid salt such as the mono-sodium salt represented by a compound of formula III, L=dicarboxylic acid salt such as the di-sodium salt represented by a compound of formula II, LH3=acid addition salt of H-D-iGlu-D-Trp-OH such as the mono hydrochloride salt of a compound of formula I wherein the NH2 is protonated. The X axis provides the pH of the solution. The Y axis reports the molar fraction of the species present at a particular pH. Note: % formation relative to L is the default terminology of the software. The concentration of 0.5M is used to reflect the equivalency of 1 gm of thymodepressin in 6 ml water during isolation purposes.
Depending on its concentration, the pH of a solution of di-sodium salt is more than about 8.2. A solution containing 100% of the di-sodium salt has pH of greater than about 11.5 as per speciation plot (FIG. 1). The high pH is unsuitable for dosing to human as a solution. pH adjustment from about 7.2 to about 7.4 with mineral acid introduces additional salt, for example, sodium chloride into the formulation.

Solubility in water = type: physicochemical
Experimental: A solution of D-isoglutamyl-D-tryptophan and sodium hydroxide in water is prepared by adding solid D-isoglutamyl-D-tryptophan to sodium hydroxide solution. […] Sodium hydroxide is chosen based on the convenience in obtaining sodium hydroxide solution, however other sodium bases such as sodium hydride, sodium carbonate, sodium bicarbonate can be used. These chemicals are obvious chemical equivalents to sodium hydroxide for step (a) of the process. In step (b), the solution is filtered to remove any particulates prior to proceeding to step (c).

[3] = Hygroscopicity of the solid in air; type: physicochemical
Experimental: A powdery or amorphous form of a compound, intended for pharmaceutical use may give rise to manufacturing problems due to bulk density issues, hygroscopicity and variable water content that cannot be corrected by vacuum drying. D-isoglutamyl-D-tryptophan is a dipeptide and the drying of an amorphous form at elevated temperature, for example, 80-100° C. under vacuum is not recommended. Thus, there are serious difficulties experienced during the purification of the di-sodium salt of D-isoglutamyl-D-tryptophan and obtaining the pure di-sodium salt on a manufacturing scale. Further, as discussed above, there is no published procedure for its preparation.

fraction present in the mono-sodium salt form ([2]; in water at a pH of about 7.0 to about 7.4, 0.5M)	solubility in water (Solubility in water)	pH of a solution containing 100% of the di-sodium salt ([2]; as per speciation plot (FIG. 1))	pH of a solution ([2]; depending on its concentration)	pH of a solution in water ([2]; solution of di-sodium salt in water)	hygroscopicity ([3]; solid form)	Molecule	oral bioavailability [1]	behaviour of the freeze-dried solid in air ([3]; freeze-dried)
about 100%	< 20 mg per ml					N[C@H](CCC(=O)N[C@H](Cc1c[nH]c2ccccc12)C(=O)O)C(=O)O [D-isoglutamyl-D-tryptophan]	not bioavailable	
		greater than 11.5	more than 8.2	about 12	extremely hygroscopic	di-sodium salt of D-isoglutamyl-D-tryptophan		turning into a gel in a matter of minutes in air
